Laboratory results taken from PubChem BioAssay AID588562 (The Scripps Research Institute Molecular Screening Center, 2011).
Active and inactive are the calls of the source. No rule for the calls is given here.

These compounds were tested against Neuropeptides B/W receptor type 1 (Homo sapiens) (UniProt P48145) (assay: GPR7 receptor antagonists, late-stage follow-up, cell-based, fluorescence, percent inhibition (AID 588562)). Settings: GPR7-expressing cells, fluorescence antagonist assay; at 20 µM; stronger effect = higher value.
Chain of Neuropeptides B/W receptor type 1 (Homo sapiens) (P48145 whole entry, looked up): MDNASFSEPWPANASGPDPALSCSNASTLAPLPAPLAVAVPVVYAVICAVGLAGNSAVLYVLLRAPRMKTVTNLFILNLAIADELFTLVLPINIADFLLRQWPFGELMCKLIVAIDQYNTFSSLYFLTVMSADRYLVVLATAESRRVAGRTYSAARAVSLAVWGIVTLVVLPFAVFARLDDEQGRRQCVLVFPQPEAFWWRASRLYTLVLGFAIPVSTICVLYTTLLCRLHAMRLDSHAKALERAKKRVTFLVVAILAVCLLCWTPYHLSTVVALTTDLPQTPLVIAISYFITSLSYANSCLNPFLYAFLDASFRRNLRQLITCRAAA

inhibition, inactive:
COc1ccc(Oc2c(N3CCOCC3)cnn(-c3ccc(C(C)C)cc3)c2=O)cc1 37%
COc1ccc(COc2c(Cl)cnn(-c3ccc(C(C)C)cc3)c2=O)cc1 27%
COc1ccc(Oc2c(C(=O)N(C)C)cnn(-c3ccc(C(C)C)cc3)c2=O)cc1 7%
COc1ccc(Oc2c(N3CCN(C)CC3)cnn(-c3ccc(C(C)C)cc3)c2=O)cc1 -25%
CCOc1ccc(Oc2c(Cl)cnn(-c3ccc(C(C)C)cc3)c2=O)cc1 46%
COc1ccc(Oc2c(NC(C)=O)cnn(-c3ccc(C(C)C)cc3)c2=O)cc1 15%
COc1ccc(Oc2c(N3CCN(C(=O)OC(C)(C)C)CC3)cnn(-c3ccc(C(C)C)cc3)c2=O)cc1 15%
COc1ccc(Oc2ccnn(-c3ccc(C)cc3)c2=O)cc1 24%
COc1ccc(Oc2c(N)cnn(-c3ccc(C(F)(F)F)cc3)c2=O)cc1 31%
COc1ccc(Oc2c(-n3nnc(C)c3C)cnn(-c3ccc(C(C)C)cc3)c2=O)cc1 15%
CC(C)c1ccc(-n2ncc(Cl)c(Oc3cc(C(C)(C)C)cc(C(C)(C)C)c3)c2=O)cc1 -3%
CC(C)c1ccc(-n2ncc(NCc3ccccc3)c(Cl)c2=O)cc1 -18%
COc1ccc(Oc2c(C(=O)O)cnn(-c3ccc(C(C)C)cc3)c2=O)cc1 -16%
COc1ccc(Oc2c(N)cnn(-c3ccc(C(C)C)cc3)c2=O)cc1 -10%
CC(C)c1ccc(-n2ncc(Cl)c(Oc3ccc(C(F)(F)F)cc3)c2=O)cc1 55%
